Measurements from patent US20220119375A1, “3-ARYLOXY-3-ARYL-PROPYLAMINE COMPOUND AND USES THEREOF” (Zhangzhou Pien Tze Huang Pharmaceutical Co., Ltd., priority 2018, published 2022).
Read-outs that look alike come from different tables or passages of the source.

Columns and labels:
[1] = test system: C57 mice, hot plate pain model; assay: mice hot plate pain model; type: in vivo, mouse; settings: 10 mg/kg intraperitoneal, hot plate 55±0.1° C., within 60 minutes
Protocol: SPF-grade C57 male mice were placed at hot plate with constant 55±0.1° C. […] If the pain reaction of mice was observed, the mice were taken out immediately to prevent mice from scalding. […] The test compounds were freshly prepared on the day of administration. 0.9% NaCl physiological saline solution was prepared as solvent for later use. Appropriate amount of test compounds were added into required volume of physiological saline and fully suspended, and the concentration of the drug compound in preparation was 1 mg/ml. The standard volume of administration to mice was 10 ml/kg (or 0.1 ml/10 g). […] The administration volume was 10 ml/kg. […] Hot plate observation index: the reaction time of mice on the hot plate at 55±0.1° C. (Time latency). Measurement and recording were conducted at 3 h before administration and 15 min, 30 min, and 60 min after administration. Maximum possible effect (MPE) % was used to evaluate analgesic effect of each compound, i.e., MPE %=[(Post drug latency-baseline latency)/(30-baseline latency)]×100. MPE % at different time points was recorded. The higher the value of MPE % was, the stronger the analgesic effect of the compound was.

TRPA1 = biological target: T1, TRPA1 (Mus musculus, UniProt Q8BLA8); assay: IonWorks Barracuda (IWB) automated patch clamp detection of TRPA1 inhibitory activity; type: cell-based, mouse (mTRPA1); settings: automated patch clamp (IWB)
T1 construct: expressed in transfected cells; host or cells: HEK293
T1 sequence (Q8BLA8 whole entry): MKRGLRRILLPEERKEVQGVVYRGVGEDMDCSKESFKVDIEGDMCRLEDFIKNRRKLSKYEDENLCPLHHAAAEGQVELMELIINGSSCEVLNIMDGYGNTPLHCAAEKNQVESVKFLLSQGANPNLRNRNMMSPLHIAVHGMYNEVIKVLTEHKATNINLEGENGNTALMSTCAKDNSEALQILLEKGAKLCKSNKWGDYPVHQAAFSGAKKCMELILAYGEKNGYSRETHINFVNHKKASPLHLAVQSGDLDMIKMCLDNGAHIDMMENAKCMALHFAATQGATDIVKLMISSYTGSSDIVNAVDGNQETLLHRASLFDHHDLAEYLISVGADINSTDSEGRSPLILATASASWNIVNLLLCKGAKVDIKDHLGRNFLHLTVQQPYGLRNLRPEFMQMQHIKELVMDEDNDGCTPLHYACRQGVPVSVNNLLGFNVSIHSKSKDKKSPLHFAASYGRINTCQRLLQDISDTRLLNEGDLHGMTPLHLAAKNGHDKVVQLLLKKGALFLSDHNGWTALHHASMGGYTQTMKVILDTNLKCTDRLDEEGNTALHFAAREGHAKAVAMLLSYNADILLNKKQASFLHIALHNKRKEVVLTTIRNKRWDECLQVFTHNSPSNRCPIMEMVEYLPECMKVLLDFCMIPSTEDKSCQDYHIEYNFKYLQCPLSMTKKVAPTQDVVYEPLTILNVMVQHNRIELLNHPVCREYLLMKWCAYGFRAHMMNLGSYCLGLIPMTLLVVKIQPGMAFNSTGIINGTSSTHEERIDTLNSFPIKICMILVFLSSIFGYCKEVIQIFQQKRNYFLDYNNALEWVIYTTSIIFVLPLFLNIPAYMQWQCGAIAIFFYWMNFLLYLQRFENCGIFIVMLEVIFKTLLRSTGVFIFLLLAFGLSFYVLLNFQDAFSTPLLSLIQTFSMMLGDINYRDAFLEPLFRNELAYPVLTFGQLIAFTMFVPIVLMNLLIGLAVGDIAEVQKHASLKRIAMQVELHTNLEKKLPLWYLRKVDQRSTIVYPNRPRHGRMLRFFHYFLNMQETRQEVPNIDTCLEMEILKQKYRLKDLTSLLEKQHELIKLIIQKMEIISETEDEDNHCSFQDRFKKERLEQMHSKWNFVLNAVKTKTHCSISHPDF
Protocol: The inhibitory activity of some compounds in the Examples of present invention on transient receptor potential channel protein TRPA1 was tested in this example. The compound of formula A (WO2010075353) was used as a positive control compound: […]
IonWorks Barracuda (IWB) automated patch clamp detection was used as test method: HEK293 cells stably expressing TRPA1 were placed in DMEM medium containing 15 μg/mL Blasticidin S HCl, 200 μg/mL Hygromycin B and 10% FBS in the T175 culture flask, and cultured in 37° C., 5% CO2 incubator. When the cell density reached about 80%, the culture medium was removed, rinsed with phosphate buffered saline (PBS) without calcium and magnesium. 3 mL of Trypsin was added to digest for 2 min, 7 mL of culture medium was added to terminate the digestion. The cells were collected to 15 mL centrifuge tube and centrifuged at 800 rpm for 3 min. After the supernatant was removed, the cells were added to appropriate volume of extracellular fluid for re-suspending, and the cell density was controlled at 2-3×10^6/mL for IWB experiment. Extracellular fluid formulation (in mM): 140 NaCl, 5 KCl, 1 MgCl2, 10 HEPES, 0.5 EGTA, 10 Glucose (pH 7.4); intracellular fluid formulation (in mM): 140 CsCl, 10 HEPES, 5 EGTA, 0.1 CaCl2, 1 MgCl2 (pH 7.2). 28 mg/mL of amphotericin B was freshly prepared with DMSO on the day of experiment, and then final concentration of 0.1 mg/mL was prepared with intracellular fluid.
Population patch clamp (PPC) plate was used in IWB experiment. The entire detection process was automatically carried out by the instrument. Extracellular fluid was added into 384 wells of PPC plate, and 6 µL of the intracellular fluid was added into plenum (under the PPC plate), 6 µL of cell fluid was added for sealing test, and finally the intracellular fluid in plenum was replaced with amphotericin B-containing intracellular fluid to establish a whole-cell recording mode after perforating sealed cells. The sampling frequency for recording TPRA1 current was 10 kHz, the cells were clamped at 0 mV, the voltage stimulation command (channel protocol) was a ramp voltage from −100 mV to +100 mV for 300 ms. This voltage stimulation was applied every 10 s, mTRPA1 current was induced by 300 µM AITC.
Data recording and current amplitude measurement export were carried out by IWB software (version 2.5.3, Molecular Devices Corporation, Union City, Calif.). No statistics was recorded for holes with sealing impedance lower than 20 MΩ. The original current data was corrected by software for leakage reduction. TRPA1 current amplitude was measured at +100 mV. […] If IC50 value of HC030031 exceeded 3 times the average IC50 value previously obtained on each plate, it would be re-tested. The dose-effect curve of compounds and IC50 were fitted and calculated by GraphPad Prism 5.02 (GraphPad Software, San Diego, Calif.).

[2] = test system: C57BL/6 mice, formalin pain model; assay: mice formalin pain model, dose response (Example 50); type: in vivo, mouse; settings: for Licking time: Phase II, 10-60 min
Protocol: 100 male C57BL/6 mice (9-week aged), were randomly divided into 10 groups to evaluate analgesic activity of two compounds in the mice formalin pain model, and each group had 10 mice. […] Before the start of experiment, the mice were allowed to adapt experimental environment for 72 h with free feeding and drinking water. The test drug was administrated intraperitoneally, and the dosage was as follows:
After administration, the mice were placed in a transparent, ventilated plexiglass cylinder, and 1 h later, 20 μl of 4% formalin solution was injected into the left hind plantar of mice in each group by micro-injector, and claw pain response in mice was recorded in real time by a mini-camera. The time length of licking left claw was used as an indicator of pain response, licking time in 0-10 min (phase I) and 10-60 min (phase II) was observed and recorded, and the statistical analysis was conducted. The half effective dose (ED50) of three compounds was calculated: ED50 referred to the dose of the drug that decreased licking time by half as compared with the blank control group. The smaller the ED50 value was, the lower the effective analgesic dose of the compound was and the stronger the analgesic effect was.

SMILES	analgesic effect (MPE %) on hot plate [1]	IC50 (TRPA1; HEK293 cells stably expressing TRPA1, AITC-induced current at +100 mV, read-out: IC50 (μM) on TRPA1 in the patch clamp detection test) [µM]	decrease of licking time as compared with blank Vehicle ([2]; 1 mg/kg, phase II (10-60 min))	IC50 (TRPA1; read-out: IC50 on TRPA1) [µM]	Licking time ([2]; 1 mg/kg intraperitoneal) [s]	Licking time ([2]; 5 mg/kg intraperitoneal) [s]	Licking time ([2]; 10 mg/kg intraperitoneal) [s]	Licking time ([2]; 20 mg/kg intraperitoneal) [s]	ED50 ([2]; Mus musculus, ip, intraperitoneal, phase II (10-60 min), dose that decreased licking time by half) [mg/kg]
CNCC[C@H](Oc1cccc2ccoc12)c1cccs1 [Compound IC-1, (S)-3-(benzofuran-7-yloxy)-N-methyl-3-(thiophen-2-yl)propyl-1-amine]	stronger than those of gabapentin and duloxetine	1 to 5	more than 50%						
CNCC[C@H](Oc1cccc2ccccc12)c1cccs1 [Duloxetine (S configuration), Duloxetine]				24.7	259.97 ± 64.44	230.49 ± 41.31	162.83 ± 36.27	72.27 ± 17.29	8
